Data from PubChem BioAssay (NCI).
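Step 1: Grow cells in 96-well plates. Step 2: Expose to compound for 48 hours at 5 concentrations. Step 3: Interpolate endpoints linearly; if unreached, use highest concentration. GI50: concentration for 50% inhibition of growth. Definition used: TGI = concentration required for complete inhibition of growth.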

Tests used:
Assay in all cases: inhibition of tumour cell growth, NCI panel, 48 h
OVCAR-3 ovarian = system: OVCAR-3 ovarian
UO-31 renal = system: UO-31 renal
DU-145 prostate = system: DU-145 prostate
ACHN renal = system: ACHN renal
HCT-15 colon = system: HCT-15 colon
HT29 colon = system: HT29 colon
MDA-MB-231 breast = system: MDA-MB-231 breast
T-47D breast = system: T-47D breast
MALME-3M melanoma = system: MALME-3M melanoma
NCI-H226 lung = system: NCI-H226 lung

Row | Structure (SMILES) | GI50 (OVCAR-3 ovarian) [µM] | TGI (OVCAR-3 ovarian) [µM] | GI50 (UO-31 renal) [µM] | TGI (UO-31 renal) [µM] | GI50 (DU-145 prostate) [µM] | TGI (DU-145 prostate) [µM] | GI50 (ACHN renal) [µM] | TGI (ACHN renal) [µM] | GI50 (HCT-15 colon) [µM] | TGI (HCT-15 colon) [µM] | GI50 (HT29 colon) [µM] | TGI (HT29 colon) [µM] | GI50 (MDA-MB-231 breast) [µM] | TGI (MDA-MB-231 breast) [µM] | GI50 (T-47D breast) [µM] | TGI (T-47D breast) [µM] | GI50 (MALME-3M melanoma) [µM] | TGI (MALME-3M melanoma) [µM] | GI50 (NCI-H226 lung) [µM] | TGI (NCI-H226 lung) [µM]
1 | NS(=O)(=O)c1ccc(N(/C=C/C(=O)C(F)(F)F)Cc2ccc(Cl)cc2)cc1 | 30.3 | > 100 | 15.8 | 44.6 | 22.1 | 66 | 31.7 | 78.1 | 31.1 | 87.2 | 43.9 | > 100 | 18.3 | 57.8 | 20.8 | 97.5 | – | – | – | –
2 | COc1ccc2c3c(c(C(=O)c4ccccc4)oc13)CCC2 | – | > 100 | – | – | – | – | – | > 100 | – | > 100 | – | > 100 | – | – | – | – | – | – | – | –
3 | Fc1cccc(-n2ccc(-c3ccccc3)nc2=S)c1 | 19 | 40.6 | 15.1 | 30 | 20.3 | 66.7 | 16.7 | 30.4 | 17.3 | 36.1 | 57.3 | > 100 | 27.9 | > 100 | – | – | 65.3 | > 100 | 18.1 | 36.5
4 | O=C1C=CC(=O)N1c1cccc(N2C(=O)C=CC2=O)c1 | 2.04 | 3.54 | 1.94 | 4.11 | 10.9 | 22.8 | 1.77 | 3.21 | 1.91 | 3.93 | 2.3 | 4.94 | 1.97 | 4.53 | – | – | 3 | 6.94 | 2.91 | 7.63
5 | N#Cc1cc(S(=O)(=O)Nc2nnc(-c3ccccc3)c(-c3ccccc3)n2)c(SCc2ccccc2)cc1Cl | 15.3 | 31.5 | 26.8 | 71.3 | 20.1 | 41.6 | 21.5 | 42.6 | 17.4 | 33.3 | – | – | 23.3 | 83.8 | – | – | – | – | 27.6 | 70.7
6 | CCOC(=O)C(CC/C=C\c1ccccc1)N1CCC[C@H]1C(=O)OC (stereo partly drawn) | – | > 100 | – | > 100 | – | – | – | > 100 | – | – | – | > 100 | – | – | – | – | – | > 100 | – | > 100
7 | O=C1c2ccccc2-c2c1c1c(O)cccc1n2Cc1ccccn1 | 20.1 | 69.4 | > 100 | > 100 | 36.5 | > 100 | 25.8 | > 100 | 53.8 | > 100 | 88.6 | > 100 | 28.5 | > 100 | > 100 | > 100 | – | – | 12.8 | 65.3
8 | N#CC1(C#N)C2C=CC(c3coc4cccc2c34)C1(C#N)C#N (stereo not drawn) | – | 29.9 | – | 25.6 | – | – | – | 17 | – | 19.2 | – | 41.6 | – | – | – | – | – | 18.8 | – | 34.3
9 | CC(=O)O[C@@]1(C)[C@@H](C)C(=O)O[C@@H]2CCN3CC=C(COC(=O)[C@]1(C)O)[C@H]23 | – | > 100 | – | > 100 | – | – | – | > 100 | – | > 100 | – | > 100 | – | – | – | – | – | > 100 | – | > 100
10 | Cc1cccc(C(C)(C)C)c1NC(=O)CCc1nc(=S)[nH][nH]1 | – | > 100 | – | > 100 | – | – | – | > 100 | – | > 100 | – | > 100 | – | – | – | – | – | > 100 | – | > 100
11 | Cn1c(N)nc(=O)c2c1N(C1OC(CO)C(O)C1O)CN2Cc1ccccc1 (stereo not drawn) | – | > 100 | – | > 100 | – | – | – | > 100 | – | > 100 | – | > 100 | – | – | – | – | – | > 100 | – | > 100
12 | CCn1c(-c2nonc2N)nc2c(C#CC(C)(C)O)ncc(OC[C@H]3CCCNC3)c21 | 6.92 | 25.9 | > 38.7 | > 100 | 12.9 | 73.8 | 25.7 | > 100 | 20.3 | > 100 | 17.5 | 51.5 | 17.8 | 55.6 | – | – | 13.4 | 30.1 | 21.1 | 52.2
13 | Oc1c(Cl)cc(Cl)cc1C(c1cc(Cl)cc(Cl)c1O)C(Cl)(Cl)Cl | 2.4 | 10.8 | – | – | 4.12 | 15.7 | 2.82 | 12 | 0.825 | 13.8 | 3.03 | 11.4 | 1.59 | 4.81 | 2.39 | 11.3 | 2.8 | 7.2 | 2.18 | 5.89
14 | Nc1ccc(-c2cccs2)cc1NC(=O)c1ccc(CCCC(=O)Nc2ccc(C3CC3N)cc2)cc1 (stereo not drawn) | 1.48 | 3.14 | 23.3 | > 100 | – | – | – | – | 5.99 | > 100 | – | – | – | – | 1.75 | 4.82 | 1.06 | 3.77 | 2.7 | 7.57
15 | CCCN(CCC)c1ccc(/C=N/NC(=O)c2cccnc2)c(OC)c1 | 16.9 | 36.7 | 17.4 | 71.6 | 27.8 | 94.8 | 28.8 | > 100 | 27.5 | > 100 | 15.8 | 55 | – | – | 17.3 | 50.8 | 18.8 | 50.4 | 32 | > 100
16 | CSc1snc2sc3c(Cl)nnnc3c12 | – | 5.72 | – | 25.6 | – | – | – | 23.3 | – | 24.9 | – | 19.6 | – | – | – | – | – | 29.3 | – | –
17 | O=C(O/N=C1/CCC/C1=C\c1ccccc1)c1ccc(Cl)c(Cl)c1 | – | > 100 | – | > 100 | – | – | – | > 100 | – | > 100 | – | > 100 | – | – | – | – | – | > 100 | – | > 100
18 | O=C(CC(=O)c1cccc2ccccc12)C(=O)NC1C2CC3CC(C2)CC1C3 (stereo not drawn) | – | > 100 | – | > 100 | – | – | – | > 100 | – | > 100 | – | > 100 | – | – | – | – | – | > 100 | – | > 100
